Experimental data taken from patent publication US11439615B2, “Lipoxin and lipoxin analogue mediated neuroprotection and treatments” (University Health Network, priority 2017, dated 2022).

Tests used:
[1] = tested on: retinal ganglion cell (RGC); assay: Mouse chronic glaucoma model (circumlimbal suture ocular hypertension); assay type: in vivo; details: 0.1 μg/μL locally and systemically every other day from week 5, n=10; for loss of RGC (RBPMS flatmount counts): end of 12 weeks; for reduction of RGC function (pSTR) / reduction of retinal nerve fiber layer (RNFL) thickness: week 12
Procedure: LXA4 and LXB4 treatment were assessed and found to be efficacious in a mouse chronic glaucoma model. Chronic ocular hypertension was induced in weaned male C57BL/6 mice using a monocular circumlimbal suture. From week 5, they were treated with either PBS vehicle, LXA4 or LXB4 (0.1 μg/μL, locally and systemically, every other day) (shaded areas). Retinal function (electroretinogram) and structure (optical coherence tomography) were measured weekly in all groups for 12 weeks. At the end of 12 weeks, animals were euthanized and retinal ganglion cell (RGC) counts were analyzed on retinal flatmounts by RBPMS immunostaining. […] (n=10 per group, bars represent S.E.M.).

[2] = tested on: HT22 cells; assay: MitoTracker Red mitochondrial membrane potential in glutamate challenged HT22 cells; assay type: cell-based; details: 1 μM, HT22 cells challenged with glutamate
Text: The mechanism of protection was investigated. […] FIG. 15B show quantification of fluorescent intensity per cell (n=3, *p<0.05, **p<0.01, bars represent S.E.M.).

[3] = tested on: retinal ganglion cell neurons (RGCs); assay: Rat chronic IOP (circumlimbal suture) glaucoma model; assay type: in vivo
Text: A method for reliably inducing sustained IOPs in the rodent eye was recently developed by Liu et al (55, 56). In this minimally invasive approach, a circumlimbal suture is placed to induce chronic ocular hypertension. An advantage of this strategy is that specific IOPs can be targeted and monitored by rebound tonometry, improving the consistency of results. In addition, following suturing elevated IOPs can be maintained for as long as 15 weeks (55). The model reproduces key features of glaucoma, such as; progressive and preferential decline in RGC function starting by week 8, gradual loss of the retinal nerve fiber layer (RNFL) by week 12, and RGC death by week 15, with minimal overt inflammation (55, 57). In the experiments, circumlimbal sutures were placed in the randomized right or left eyes of anesthetized rats using a sterile 8-0 nylon suture. IOP was measured twice a week, and only animals showing sustained elevated IOP over 21 mmHg for the duration of the experiment were included in the analyses. The delivery and dosage of LXB4 was based on previous publications (58-60). Briefly, LXB4 or vehicle were administered starting from week 8 on alternate days. Due to the unstable nature of lipoxins, a hybrid approach was taken to ensure consistent delivery, including both IP delivery (1 μg) and topically to each eye (100 ng). ERG was measured monthly to assess RGC functional changes using the positive scotopic threshold response (pSTR), which has been used to measure the impact of elevated chronic IOP in rats (55, 61). In addition, RNFL and total retinal thickness were quantified once a month using optical coherence tomography (OCT). After 15 weeks, animals were euthanized and RGC numbers were counted on middle and peripheral quadrants of retinal flatmounts following immunofluorescent staining for the RGC marker BRN3a as above.
Therapeutic LXB4 treatment rescues RGC function in a chronic IOP dependent glaucoma model. To assess whether LXB4 action extends beyond acute stress models, it was investigated if it provides RGC protection in a chronic model more relevant to human neurodegenerative disease. For this purpose a recently described rat perilimbal suture model of glaucoma was used, in which moderately elevated intraocular pressure (IOP) can be consistently maintained over 15 weeks (55, 57). Elevated IOP is the primary clinical glaucoma risk factor, and this model results in similar compromised RGC function, reduced nerve fiber layer (NFL) thickness, and death of RGCs by week 15 (55). […] Therefore, this time point was chosen to initiate an experiment in which therapeutic treatment with LXB4 or vehicle was administered to sutured rats starting at week 8, with longitudinal and pathological assessment of RGC function and survival (FIG. 6A).
LXB4 or vehicle treatment of sutured rats was initiated after 8 weeks of elevated IOP, and was delivered on alternate days until week 15. A control group was treated with vehicle only. Additionally, for each rat increased IOP was induced in the unilaterally, with the contralateral eye serving as control. IOP was monitored twice weekly throughout the experiment. As functional and structural endpoints, electroretinograms (ERG) and optical coherence tomography (OCT) were measured at week 0 (before placing the suture), and on weeks 4, 8, and 12, and 15 of elevated IOP.
In vehicle eyes there were 35% and 30% fewer BRN3a positive RGCs in sutured eyes compared to contralateral controls in the […], respectively (FIG. 7A-FIG. 7B).

[4] = tested on: HT22 cells; assay: Glutamate challenge of HT22 neuronal cells, viability; assay type: cell-based; details: for efficacy of neuroprotection / EC50: HT22 cells exposed to glutamate stress, nonlinear regression; for EC50: Mus musculus, HT-22, n=3/point, read-out: EC50 of neuroprotection; for viability of glutamate challenged HT22 cells: increasing concentrations up to 500 nM, 5 mM glutamate
Procedure: An in vitro assay to recapitulate key aspects of the acute KA model was established. In this case, unconcentrated ACM was applied to the glutamate sensitive neuronal cell line HT22 (66, 67). Glutamate challenge of 5 mM was titrated to induce 60-80% cell death (ie: 20-40% survival). […] The media was concentrated for proteomic analyses.
LXA4 and LXB4 promote direct neuroprotective signaling. To the inventor's knowledge, a role for lipoxins as direct neuroprotective or neurotrophic factors has not been reported. Although their established anti-inflammatory actions extend to the CNS (29-32). However, it was hypothesized they may have indirect protective effects. In order to test whether the protective activity was direct or indirect, LXA4 or LXB4 was applied to neuronal cells in an established in vitro assay.
There is no established receptor for LXB4. However, LXB4 shares structural homology with LXA4 and the DHA-derived resolving D2 (RvD2), which mediate their actions via FPR2 or GPR18 (74), respectively. Therefore, it was assessed whether specific receptor antagonists for FPR2 or GPR18 could block LXB4 mediated protection.
As shown in FIG. 14 lipoxin neuroprotection is dose responsive. Dose responses were generated for LXA4 (open circles) and LXB4 (closed circles) in HT22 cells exposed to glutamate stress, followed by nonlinear regression analyses.

| SMILES | loss of RGC (RBPMS flatmount counts) [1] [%] | reduction of RGC function (pSTR) [1] [%] | reduction of retinal nerve fiber layer (RNFL) thickness [1] [%] | glutamate induced increase in mitochondrial membrane potential (MitoTracker Red) [2] | RGC function, positive scotopic threshold response (pSTR, ERG) ([3]; IP 1 μg and topical 100 ng on alternate days from week 8 to 15, by week 12, vs vehicle) | IOP levels compared to vehicle treated group ([3]; measured twice weekly throughout) | a-wave (photoreceptor) and b-wave (bipolar cell) ERG signals ([3]; treatment week 8 to 15) | total retinal thickness (OCT) ([3]; treatment week 8 to 15) | RNFL thickness loss (OCT) ([3]; treatment week 8 to 15, by week 15, vs vehicle) | BRN3a positive RGCs on retinal flatmounts, inner and outer retina ([3]; week 15, vs vehicle) | efficacy of neuroprotection [4] | EC50 [4] [nM] | viability of glutamate challenged HT22 cells [4] |
| --- | --- | --- | --- | --- | --- | --- | --- | --- | --- | --- | --- | --- | --- |
| CCCCC[C@H](O)[C@H](O)/C=C/C=C/C=C\C=C\[C@@H](O)CCCC(=O)O [LXB4, 5S,14R,15S-trihydroxy-6E,8Z,10E,12E-eicosatetraenoic acid] | −12.2±0.9 | −20.9±1.0 | −20.9±1.0 | blocked the glutamate induced increase in mitochondrial membrane potential | significant recovery | did not differ | no LXB4 effects | not affected | partially rescued | significant rescue of RGCs | 0.81 | 39.2 | significantly increased viability |
| CCCCC[C@H](O)/C=C/C=C\C=C\C=C\[C@@H](O)[C@@H](O)CCCC(=O)O [LXA4, 5S,6R,15S-trihydroxy-7E,9E,11Z,13E-eicosatetraenoic acid] | −14.1±1.0 | −24.0±1.3 | −23.8±1.6 | – | – | – | – | – | – | – | 0.89 | 631 | significantly increased viability |
